Source: patent publication US12129264B2, “Crystalline forms of a PAR4 inhibitor” (BRISTOL-MYERS SQUIBB COMPANY, priority 2018, dated 2024)

Legend:
[1] = Microdissolution of co-crystals versus free form in FaSSIF (pION Microdissolution Profiler); type: physicochemical; conditions: for AUC (extent of dissolution), Mean / Dissolution Rate, Mean: FaSSIF pH 6.5, 15 mL at 37° C., 150 rpm, API powder 0.2 mg/mL, N = 4; for AUC (extent of dissolution), Mean: 180 min, trapezoidal rule
Description: The dissolution of the N-1 form of the citric acid and the succinic acid co-crystals of the compound of formula (I) were tested against that of the free form of the compound of formula (I). The dissolution properties, rate and extent, and peak solubility were tested in FaSSIF (fasted state simulated intestinal fluid).
This experiment was performed on a pION Microdissolution Profiler™ an API sparing, low volume dissolution instrument with UV fiber optics (UVFO) probes to measure real-time dissolution profile in biorelevant media. The experimental was run under the following conditions: • Apparatus: plon Microdissolution profiler • Media: FaSSIF, pH 6.5 • Volume: 15 mL at 37° C. • Stirring: 150 rpm with small stirrer bar • Dose: API powder at 0.2 mg/mL or 3 mg/vial • Study duration: 180 min
Time points: several time points to capture initial dissolution rate and through 180 min (typical time for absorption)
The results were analyzed using UVFO Analysis: Standard curve range 0-3 μg/mL; 10 mm path length probe windows; detection wavelength 315 nm; slope ˜17 μg/mL/AU; R2=0.99.

[2] = Pharmacokinetic study of co-crystal capsules in the dog model; type: in vivo; conditions: for Systemic absorption in the dog model: at relevant doses (5 mg capsule); for AUC0-24h, Mean / Cmax, Mean / Tmax: capsule, 5 mg/dog, pentagastrin pre-treated fasted male dogs, crossover in 4 dogs
Description: The co-crystals were tested using the following formulations: • 1. Succinic Acid co-crystal capsule (5 mg dose)—Pentagastrin pre-treated, fasted dogs • 2. Citric Acid co-crystal capsule (5 mg dose)—Pentagastrin pre-treated, fasted dogs
The Study Design is as follows:
Crossover in 4 fasted male dogs (˜10 kg); dose 5 mg/dog; flush with 50 mL water; 2-week washout between treatments; 8 blood sample points per treatments.

Row | Compound | Dissolution in FaSSIF compared with the free form [1] | AUC (extent of dissolution), Mean [1] | Dissolution Rate, Mean [1] | Systemic absorption in the dog model [2] | AUC0-24h, Mean [2] | Cmax, Mean [2] | Tmax [2]
1 | 4-(4-(((6-Methoxy-2-(2-methoxyimidazo[2,1-b][1,3,4]thiadiazol-6-yl)benzofuran-4-yl)oxy)methyl)thiazol-2-yl)-N,N-dimethylbenzamide: citric acid co-crystal (1:1), form N-1 [Example 2] | better than the free form | 988.900 µg·min/mL | 0.584 µg/mL/min | measurable systemic absorption | 161.61 ng·h/mL | 29.28 ng/mL | 2.0 h
2 | 4-(4-(((6-Methoxy-2-(2-methoxyimidazo[2,1-b][1,3,4]thiadiazol-6-yl)benzofuran-4-yl)oxy)methyl)thiazol-2-yl)-N,N-dimethylbenzamide: succinic acid co-crystal (1:0.5) [Example 1] | better than the free form | 272.622 µg·min/mL | 0.144 µg/mL/min | measurable systemic absorption | 93.97 ng·h/mL | 12.22 ng/mL | 1.5 h
3 | COc1cc(OCc2csc(-c3ccc(C(=O)N(C)C)cc3)n2)c2cc(-c3cn4nc(OC)sc4n3)oc2c1 [Free form, 4-(4-(((6-Methoxy-2-(2-methoxyimidazo[2,1-b][1,3,4]thiadiazol-6-yl)benzofuran-4-yl)oxy)methyl)thiazol-2-yl)-N,N-dimethylbenzamide] |  | 0 µg·min/mL | 0 µg/mL/min |  |  |  | 
